The source of these data is paper PMC5909342, “Increasing the bioactive space of peptide macrocycles by thioamide substitution” (Chemical Science, 2018).

Data set [1] has as its target T1, αvβ3 integrin (Homo sapiens, UniProt P05106+P06756).
T1 construct: purchased Millipore
Put plainly: Competitive solid-phase integrin binding assay (ELISA), vitronectin-αvβ3. On the procedure:
(§1) The initial structure was obtained by following a simulated annealing protocol. […] For the structure of 7-11 (including 9a-9d) explicit solvent box of H2O was used with periodic boundary conditions. A 2 ns restrained molecular dynamics run was then performed. The average conformation over the dynamics run was considered to be the final structure. Competitive solid-phase integrin binding assay The activity of peptide as integrin antagonist was assessed using solid phase integrin binding assay. Following buffers were prepared freshly. […] 96-well plate reader at 492 nm. […] Post-blocking and washing peptides were mixed with biotinylated vitronectin and this mixure was then incubated with coated plates for 2h at room temperature. […] After washing S6
In general terms: ELISA stands for enzyme-linked immunosorbent assay.

The target of data set [2] is T2, αvβ5 integrin (Homo sapiens, UniProt P06756+P18084).
T2 construct: purchased Millipore
Put plainly: Competitive solid-phase integrin binding assay (ELISA), vitronectin-αvβ5. The conditions noted are these: purified integrin, n = 5 ± SEM, read-out: In vitro IC50 αvβ5. On the procedure:
as §1

The target in data set [3] is T3, α5β1 integrin (Homo sapiens, UniProt P05556+P08648).
T3 construct: purchased Millipore
Put plainly: Competitive solid-phase integrin binding assay (ELISA), fibronectin-α5β1. The conditions noted are these: purified integrin, n = 5 ± SEM, read-out: In vitro IC50 α5β1. On the procedure:
as §1, with “Binding” for “Post-blocking and washing peptides were mixed with biotinylated vitronectin and this mixure”, “visualized using TMB substrate.” for “then incubated with coated plates for 2h at room temperature.”, “S7” for “After washing S6”

In data set [4] the target is T4, αIIbβ3 integrin (Homo sapiens, UniProt P05106+P08514).
T4 construct: purchased Millipore
Put plainly: Competitive solid-phase integrin binding assay (ELISA), fibrinogen-αIIbβ3. The following applies: purified integrin, n = 5 ± SEM, read-out: In vitro IC50 αIIbβ3. How it is done: The inhibitory potency of the peptides to block the association between the extracellular matrix and the integrins overexpressed on cell-surfaces was determined using an in vitro competitive solid phase binding assay.[25] We assessed the affinity of these peptides against the pro-angiogenic αvβ3, αvβ5 and α5β1 integrins, and their selectivity against their αIIbβ3 integrin, which plays an important role in platelet aggregation (Table 1).[26]
integrin was incubated for 1h at room temperature. After washing 1:250 diluted CD41b
antibody was incubated for 1h at room temperature. Anti-mouse IgG-peroxidase antibody
was used as secondary antibody. Binding was visualized using TMB substrate. […]

The subject of data set [5] is αvβ5 expressing MDA-MB-231 breast cancer cells. Put plainly: Competitive cell-adhesion inhibition assay to vitronectin, MDA-MB-231. Type of data set: cell-based, human. The following applies: n = 5 ± SEM, read-out: In cellulo IC50 MDA-MB-231. How it is done: To validate our in vitro data and determine the efficacy of the peptides against the pro-angiogenic integrins in a complex cellular milieu, we subjected the peptides to a competitive cell-adhesion assay (Table 1) utilizing MDA-MB-231 human breast cancer cells expressing αvβ5 integrins, and U-87 MG human glioblastoma cells expressing αvβ3, αvβ5 and α5β1 integrins.[27] […] On the other hand, we observed a remarkable correlation between the in vitro affinity of the thioamidated peptides against the purified integrins and their efficacy in cellulo (αvβ5 with MDA-MB-231, and αvβ3 and αvβ5 with U-87 MG). […]
(§2) Cell adhesion inhibition assay […]
(§3) incubated with 0.5% crystal violet for 15 min. Cells were then washed thoroughly with PBS buffer to remove excess of crystal violet. Finally dye was eluted out and dissolved using DMSO and quantification was done at 570 nm. […]
(§4) was dispensed and 5% FBS containing media was added. […]

Data set [6] relates to αvβ3, αvβ5 and α5β1 expressing U-87 MG glioblastoma cells. Put plainly: Competitive cell-adhesion inhibition assay to vitronectin, U-87 MG. Type of data set: cell-based, human. The conditions noted are these: n = 5 ± SEM, read-out: In cellulo IC50 U-87 MG. How it is done: To validate our in vitro data and determine the efficacy of the peptides against the pro-angiogenic integrins in a complex cellular milieu, we subjected the peptides to a competitive cell-adhesion assay (Table 1) utilizing MDA-MB-231 human breast cancer cells expressing αvβ5 integrins, and U-87 MG human glioblastoma cells expressing αvβ3, αvβ5 and α5β1 integrins.[27] […]
as §2, §3, §4

Data set [7] can be described thus: Ex vivo serum stability assay. The following applies: human serum ex vivo.
Where [8] appears, read: competitive ELISA, purified integrin, n = 5 ± SEM, read-out: In vitro IC50 αvβ3.
[9] abbreviates: from experimental IC50, read-out: pIC50 against αvβ3, Table S22 (converted).

Read-outs that look alike come from different tables or passages of the source.

For the compound `CC(C)[C@@H]1NC(=S)[C@@H](Cc2ccccc2)NC(=O)[C@H](CC(=O)O)NC(=O)CNC(=O)[C@H](CCCNC(=N)N)NC1=O` [Compound 7], the IC50 was 0.372 ± 0.052 µM in data set [1] (setting [8]); 0.0007 ± 0.0002 µM in data set [2]; 0.0013 ± 0.0006 µM in data set [3]; more than 10 µM in data set [4]; 0.004 ± 0.002 µM in data set [5]; 0.326 ± 0.097 µM in data set [6].

On to `CC(C)[C@@H]1NC(=O)[C@@H](Cc2ccccc2)NC(=O)[C@H](CC(=O)O)NC(=O)CNC(=S)[C@H](CCCNC(=N)N)NC1=O` [Compound 9], for which the IC50 was more than 100 µM in data set [1] (setting [8]); more than 100 µM in data set [1] (setting [9]); more than 10 µM in data set [2]; 0.053 ± 0.042 µM in data set [3]; more than 10 µM in data set [4]; more than 100 µM in data set [5]. Besides, the IC50 in data set [6] is more than 100 µM.

For `CC(C)[C@@H]1NC(=O)[C@H](Cc2ccccc2)NC(=O)[C@@H](CC(=O)O)NC(=O)CNC(=O)[C@H](CCCNC(=N)N)NC1=S` [Compound 9a], the IC50 came out at 0.011 ± 0.009 µM in data set [5] and 0.04 ± 0.028 µM in data set [6].

As for `CC(C)[C@@H]1NC(=S)[C@H](Cc2ccccc2)NC(=O)[C@H](CC(=O)O)NC(=O)CNC(=O)[C@H](CCCNC(=N)N)NC1=O` [Compound 9b], in data set [1] (9b versus 7 (differ only in chirality of Phe)), the “Fold difference in αvβ3 affinity” value is given as > 10^3 fold. The “Fold enhancement of affinity and efficacy in comparison to 9” value in data set [1] (9b versus 9, pro-angiogenic integrins) is ~10^5 fold. Also, the IC50 in data set [1] (setting [8]) was 0.0002 ± 0.0001 µM; in data set [1] (setting [9]), 0.0002 µM; in data set [2] it was 0.0016 ± 0.0003 µM; in data set [3], 0.002 ± 0.0004 µM; in data set [4], more than 100 µM; in data set [5] it was 0.001 ± 0.0001 µM. The IC50 in data set [6] came to 0.0016 ± 0.0006 µM. Moreover, the “Fraction of peptide intact at 72 h” value in data set [7] is recorded as 1/4.

Regarding `CC(C)[C@@H]1NC(=O)[C@H](Cc2ccccc2)NC(=S)[C@H](CC(=O)O)NC(=O)CNC(=O)[C@@H](CCCNC(=N)N)NC1=O` [Compound 9c], the IC50 in data set [1] (setting [8]) was more than 100 µM; in data set [2] it was more than 10 µM; in data set [3], 0.461 ± 0.246 µM; in data set [4] it was more than 100 µM; in data set [5] it was more than 100 µM; in data set [6], more than 100 µM.

For `CC(C)[C@H]1NC(=O)[C@H](Cc2ccccc2)NC(=O)[C@H](CC(=O)O)NC(=S)CNC(=O)[C@H](CCCNC(=N)N)NC1=O` [Compound 9d], the IC50 is 0.584 ± 0.504 µM in data set [1] (setting [8]); more than 10 µM in data set [2]; 0.104 ± 0.095 µM in data set [3]; more than 100 µM in data set [4]; more than 100 µM in data set [5]; more than 100 µM in data set [6].

For the compound `CC(C)[C@@H]1NC(=O)[C@@H](Cc2ccccc2)NC(=O)[C@H](CC(=O)O)NC(=S)CNC(=O)[C@H](CCCNC(=N)N)NC1=O` [Compound 10], the IC50 in data set [1] (setting [8]) was 0.252 ± 0.2 µM; in data set [2], more than 100 µM; in data set [3], more than 100 µM; in data set [4], more than 100 µM; in data set [5], more than 100 µM; in data set [6], more than 100 µM.

With `CC(C)[C@@H]1NC(=O)[C@@H](Cc2ccccc2)NC(=S)[C@H](CC(=O)O)NC(=O)CNC(=O)[C@H](CCCNC(=N)N)NC1=O` [Compound 11], the IC50 in data set [1] (setting [8]) is 0.072 ± 0.063 µM; in data set [2], 0.0013 ± 0.001 µM; in data set [3], 0.062 ± 0.045 µM; in data set [4], more than 100 µM; in data set [5], 0.0042 ± 0.004 µM; in data set [6], 0.096 ± 0.077 µM. In addition, in data set [7], the “Fraction of peptide intact at 72 h” value is listed as 1/4.

As to `CC(C)[C@@H]1NC(=O)[C@H](Cc2ccccc2)NC(=O)[C@H](CC(=O)O)NC(=O)CNC(=O)[C@H](CCCNC(=N)N)NC1=O` [Compound 12, cyclo(RGDFV)], the IC50 in data set [5] and in data set [6] was more than 100 µM in each case.
